According to patent EP0275742A1, “5-Hydroxymethyl derivatives of 2-oxazolidinones, their preparation and their therapeutical use” (SYNTHELABO, priority 1986, dated 1988):
pKi: −log10 of the molar value.

Legend:
MAO-A = molecular target: T1, MAO-A (Rattus norvegicus, UniProt P21396); assay: MAO-A inhibition in vitro, rat brain homogenate (protocol of DOSTERT P. et coll.); assay type: biochemical; details: 20 min preincubation; [14C] sérotonine 480 µM, KM = 100 µM; whole brain homogenate of male Sprague-Dawley rat, 1 g tissue/16 ml phosphate buffer pH 7,4; Ki calculated from CI 50
T1 construct: un homogénat de cerveau total de rat mâle Sprague-Dawley; from tissue; host or cells: whole brain homogenate of male Sprague-Dawley rat
T1 sequence (P21396 1-526): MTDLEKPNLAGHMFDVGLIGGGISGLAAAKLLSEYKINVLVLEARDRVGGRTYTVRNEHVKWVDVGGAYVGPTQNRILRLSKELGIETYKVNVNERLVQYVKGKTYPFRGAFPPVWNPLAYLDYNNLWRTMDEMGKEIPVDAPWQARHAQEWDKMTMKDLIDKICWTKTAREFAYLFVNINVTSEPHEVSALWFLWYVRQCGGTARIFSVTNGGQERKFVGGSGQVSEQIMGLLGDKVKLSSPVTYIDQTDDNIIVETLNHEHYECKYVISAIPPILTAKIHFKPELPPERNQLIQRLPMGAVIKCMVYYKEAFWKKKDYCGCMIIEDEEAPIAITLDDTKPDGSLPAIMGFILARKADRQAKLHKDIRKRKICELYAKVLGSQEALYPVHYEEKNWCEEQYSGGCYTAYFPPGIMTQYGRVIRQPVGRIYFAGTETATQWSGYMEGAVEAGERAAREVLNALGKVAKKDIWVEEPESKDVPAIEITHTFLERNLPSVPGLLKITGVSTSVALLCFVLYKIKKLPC
Procedure: (§1) Cette activité-a été mise en évidence par mise en oeuvre du protocole décrit par DOSTERT P. et coll. dans J. Pharm. Pharmacol., 1983, 35, 161-165; ce protocole est basé sur des tests enzymatiques menés avec ou sans préincubation notamment à 37° C pendant 20 minutes et il permet de mesurer in vitro l'effet inhibiteur à l'égard de la MAO-A et de la MAO-B du cerveau de rat.
(§2) Le tableau IV ci-après rassemble les constantes d'inhibition Ki(A) et Ki(B) respectivement des formes A et B de la MAO, obtenues pour un certain nombre de composés selon l'invention en suivant le protocole ci-dessus appliqué à un homogénat de cerveau total de rat mâle Sprague-Dawley, à 1 g de tissu/16 ml de tampon phosphate de pH 7,4.

MAO-B = molecular target: T2, MAO-B (Rattus norvegicus, UniProt P19643); assay: MAO-B inhibition in vitro, rat brain homogenate (protocol of DOSTERT P. et coll.); assay type: biochemical; details: for pKi: 20 min preincubation, [14C] phényléthylamine 12 µM, KM = 6 µM, whole brain homogenate of male Sprague-Dawley rat, 1 g tissue/16 ml phosphate buffer pH 7,4, Ki calculated from CI 50; for Ki (A) / Ki (B): selectivity ratio MAO-A over MAO-B, rat brain homogenate
T2 construct: un homogénat de cerveau total de rat mâle Sprague-Dawley; from tissue; host or cells: whole brain homogenate of male Sprague-Dawley rat
T2 sequence (P19643 1-520): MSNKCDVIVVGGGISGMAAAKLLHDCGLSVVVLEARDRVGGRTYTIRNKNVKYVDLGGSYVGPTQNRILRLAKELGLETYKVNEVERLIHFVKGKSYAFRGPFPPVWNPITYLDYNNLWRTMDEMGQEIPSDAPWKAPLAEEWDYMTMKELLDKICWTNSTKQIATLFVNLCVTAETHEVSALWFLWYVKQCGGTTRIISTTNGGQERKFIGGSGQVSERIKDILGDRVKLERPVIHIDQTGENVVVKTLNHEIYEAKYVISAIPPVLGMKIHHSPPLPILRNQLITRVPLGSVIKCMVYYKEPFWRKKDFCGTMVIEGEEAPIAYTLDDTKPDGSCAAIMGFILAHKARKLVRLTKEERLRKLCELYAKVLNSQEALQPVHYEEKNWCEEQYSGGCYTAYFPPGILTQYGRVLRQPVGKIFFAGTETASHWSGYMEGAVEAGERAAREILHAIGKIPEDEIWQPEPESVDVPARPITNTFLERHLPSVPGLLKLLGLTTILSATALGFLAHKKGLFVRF
Procedure: as §1, §2

| pKi (MAO-A) | pKi (MAO-B) | Ki (A) / Ki (B) (MAO-B) | Compound |
| --- | --- | --- | --- |
| 4.99 | 7.40 | 259 | C[C@@H](O)[C@H]1CN(c2ccc(OCC3CCCCC3)cc2)C(=O)O1 [compound 200443] |
| 5.22 | 6.77 | 36 | CC(C)CCOc1ccc(N2C[C@H]([C@@H](C)O)OC2=O)cc1 [compound 200497] |
| 5.05 | 7.85 | 634 | C[C@@H](O)[C@H]1CN(c2ccc(OCc3ccc(F)c(Cl)c3)cc2)C(=O)O1 [compound 200498] |
| < 6.00 | 5.80 | > 0,6 | C[C@H](O)[C@@H]1CN(c2ccc(OCc3cccc(Cl)c3)cc2)C(=O)O1 [compound 300872, [(chloro-3 benzyloxy)-4 phényl]-3 (hydroxy-1 étant)-5 oxazolidinone-2] |
| < 4.76 | 7.57 | >640 | C[C@@H](O)[C@H]1CN(c2ccc(OCc3cccc(Cl)c3)cc2)C(=O)O1 [compound 300873, [(chloro-3 benzyloxy)-4 phényl)-3 (hydroxy-1 éthyl)-5 oxazolidinone-2] |
| 5.65 | 6.46 | 7 | [(chloro-3 benzyloxy)-4 phényl]-3 (hydroxy-1 éthyl)-5 oxazolidinone-2 [compound 340177] |
| 6.32 | 7.00 | 5 | [(chloro-3 benzyloxy)-4-phenyl]-3 (hydroxy-1 éthyl)-5 oxazolidinone-2 [compound 340176] |
